Reference: patent US20090291857A1, “METHODS TO IDENTIFY INHIBITORS OF THE UNFOLDED PROTEIN RESPONSE” (THE BOARD OF TRUSTEES OF THE LELAND STANFORD JUNIOR …, priority 2006, published 2009)

System: XBP-1s
Assay: Western immunoblot analysis of XBP-1s in HT1080 cells
Format: cell-based, human
Conditions: 2 μM; for levels of XBP-1s under hypoxia: 24 hours of hypoxia
Experimental: Cells were harvested, lysed, and analyzed by Western blot using anti-XBP-1 antisera (lower panel) or anti-HIF-1 antisera (top panel) to confirm hypoxia exposure.
Cells (2×10^6) were cultured in 10-cm dishes, collected using a cell scraper at 4° C., and lysed by addition of 150 μl cell lysis buffer [50 mM Tris pH 7.4, 150 mM NaCl, 10% glycerol, 0.5% Triton X-100. 0.5% NP-40, 2 mM Na3VO4, 20 mM beta-glycerophosphate, 10 mM NaF, 1 mM DTT, 1 mM PMSF). Lysates were centrifuged for 5 min at 10,000×g, and proteins (˜40 μg) were resolved by SDS-PAGE followed by semi-dry transfer to nitrocellulose membranes. Membranes were blocked in TBS-5% milk supplemented with 0.1% Tween-20. The blots were then probed overnight with relevant antibodies, washed, and incubated for 2 hours with species-specific secondary antibodies conjugated to horseradish peroxidase. After washing in block solution, immunoreactive material was detected by enhanced chemiluminescence (SuperSignal West Dura Extended, Pierce, Inc., Rockville, Ill.).
A. XBP-luciferase reporter construct. Firefly luciferase was inserted downstream of the IRE1α splice site in human XBP-1 to enable the conditional translation of luciferase under ER stress in an IRE1α-dependent manner. B. Selective inhibition of the XBP-luciferase reporter by irestatin 9389. […] After 24 hours, luciferase activity was analyzed in an automated plate reader. For each cell line, values are expressed as the percent inhibition of the median for Tm/Tg-treated wells, corrected for background. […] Values are expressed as the fold increases over uninduced levels. […] Cells were harvested, lysed, and analyzed by immunoblotting with antisera specific for HIF-1α (top), XBP-1s (middle) or actin (bottom). […] Total RNA was analyzed by Northern blotting using radiolabeled probes specific for P58^IPK or DER-1. […]
Since these assays employed a chimeric XBP-luciferase substrate, we next determined whether irestatin 9389 could inhibit the function of endogenous XBP-1s. […]

## Cc1csc(NC(=O)CSc2nc3c(c(C(F)(F)F)c2C#N)CCC3)n1 [Compound 9389]
Listed as Irestatin 9389
  levels of XBP-1s under hypoxia: blocks the accumulation of XBP-1s
Listed as irestatin 9389
  levels of XBP-1s under hypoxia: decreased levels of XBP-1s
Tm 4 μg/ml 20 hours
  accumulation of XBP-1s following treatment with Tm: blocked the accumulation of XBP-1s
